{
  "source": "patent US11202791B2",
  "about": "“Compositions containing tannic acids and uses thereof” (SyneuRx International (Taiwan) Corp., priority 2016, dated 2021)",
  "assay_type_in_all_cases": "in vivo, C57BL/6J male mice",
  "key": {"MK-801 treated mice [1]": {"system": "MK-801 treated mice", "experiment": "Open field, MK-801-induced hyper-locomotion", "procedure": "Each mouse in Groups 2-6 received an acute administration of MK-801 (Sigma-Aldrich, USA) dissolved in normal saline, 0.1 mg/kg, i.p.) 20 minutes prior to the behavioral tests. Each mouse in Groups 3-6 received an acute administration of tannic acids (Sigma-Aldrich, USA; dissolved in PBS, 10, 15, 20 or 30 mg/kg, i.p.) 20 minutes prior to the MK-801 administration.\n(§1) Each mouse in Groups 2-5 received an acute administration of MK-801 (Sigma-Aldrich, USA) dissolved in normal saline, 0.1 mg/kg for open field and Barnes maze tasks, and 0.2 mg/kg for prepulse inhibition and sucrose preference tasks by i.p. injection) 20 minutes prior to the behavioral tests. Each mouse in Groups 3-6 received an acute oral administration of tannic acids (Merck Millipore, Germany; dissolved in PBS, 10, 30, or 100 mg/kg, p.o.) 20 minutes prior to the MK-801 administration.\nEach mouse in Groups 2-5 received an acute administration of 0.2 mg/kg MK-801 (Sigma-Aldrich, USA) dissolved in normal saline by i.p. injection 20 minutes prior to the locomotion activity test. […]\nThe open field task is a common measurement of novelty induced exploratory behavior and general activity in both mice and rats. […] Their spontaneous locomotor activities were measured for 30 minutes using the SMART video tracking system (Panlab, Harvard Apparatus). The travel distance of each mouse was measured as an index of locomotion activity."}, "MK-801 treated mice [2]": {"system": "MK-801 treated mice", "experiment": "Prepulse inhibition in MK-801-treated mice"}, "MK-801 treated mice [3]": {"system": "MK-801 treated mice", "experiment": "Sucrose preference (anhedonia) in MK-801 treated mice", "details": "MK-801 alone 0.2 mg/kg i.p.", "procedure": "as §1\nSucrose preference test has been commonly examined in mouse models of several mental illnesses, including, but not limited to, depression, major depression disorder, anhedonia, negative symptoms of schizophrenia, chronic mild and unpredictable stress (see Anderson et al., 2006; Carvalho et al., 2013; Briones et al., 2011; Der-Avakian and Markou, 2012; Tye et al., 2013; Edwards and Koob, 2012; Brigman et al., 2010; Koo and Duman, 2007; Nestler and Hyman, 2010; Overstreet, 2012; Papp et al., 1991; Santiago et al., 2010; Skalisz et al., 2002; Szczypka et al., 2001; Taylor et al., 2010; Vardigan et al., 2010; Willner et al., 1987; You et al., 2011)."}},
  "data": [
    {"smiles": "C[C@]12N[C@H](Cc3ccccc31)c1ccccc12", "note": "[MK-801, dizocilpine]", "values": [
      {"measurement": "locomotion activity vs control group", "setting": "MK-801 treated mice [1]; MK-801 alone 0.1 mg/kg i.p. (Example 3)", "result": "hyper-locomotion activity"},
      {"measurement": "locomotion activity vs control group", "setting": "MK-801 treated mice [1]; MK-801 alone 0.2 mg/kg i.p. (Example 9)", "result": "hyper-locomotion activity"},
      {"measurement": "prepulse inhibition vs control group", "setting": "MK-801 treated mice [2]; MK-801 alone 0.2 mg/kg i.p. (Example 4)", "result": "robust prepulse inhibition deficits"},
      {"measurement": "prepulse inhibition vs control group", "setting": "MK-801 treated mice [2]; MK-801 alone 0.3 mg/kg i.p., all prepulse intensities (Example 9)", "result": "robust prepulse inhibition deficits"},
      {"measurement": "preference toward the sucrose solution (2%) vs control group", "setting": "MK-801 treated mice [3]", "result": "did not show the preference toward the sucrose solution"}
    ]}
  ]
}
